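1) Cells in 96-well plates. 2) Compound, 48 h, 5 concentrations. 3) Linear interpolation between surrounding doses. 4) Unreached endpoint = highest concentration. Definition used: TGI = concentration required for complete inhibition of growth.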
Legend:
Test in all cases: inhibition of tumour cell growth, NCI panel, 48 h
LOX IMVI melanoma = system: LOX IMVI melanoma
MCF7 breast = system: MCF7 breast
MOLT-4 leukemia = system: MOLT-4 leukemia
OVCAR-5 ovarian = system: OVCAR-5 ovarian
NCI-H460 lung = system: NCI-H460 lung
SK-MEL-28 melanoma = system: SK-MEL-28 melanoma
SNB-75 CNS = system: SNB-75 CNS
KM12 colon = system: KM12 colon
M14 melanoma = system: M14 melanoma
RPMI-8226 leukemia = system: RPMI-8226 leukemia

Measured: TGI

Oc1ccc(SCc2cc(O)c(O)c(O)c2)cc1
36.7 µM: NCI-H460 lung
78.6 µM: RPMI-8226 leukemia
33.1 µM: M14 melanoma
42.6 µM: KM12 colon
50.7 µM: OVCAR-5 ovarian
38.4 µM: MCF7 breast
> 100 µM: all other assays above

C=CCNC(=O)NC1=CSC2=NC(=O)C3(NN12)c1ccccc1-c1ccccc13
> 10 µM: all assays above

C(=C\c1ccccc1)/C=N/c1nc2cc3sc(/N=C/C=C/c4ccccc4)nc3cc2s1
> 76.1 µM: MOLT-4 leukemia
> 100 µM: all other assays above

NC(=O)c1ccc2c(c1)S(=O)(=O)c1ccccc1C2=O
> 100 µM: all assays above

COC(=O)n1c(=O)n(-c2ccccc2)c(=O)n1C(=O)OC
> 100 µM: all assays above

O=c1c2cc(I)ccc2nc(Sc2ncccc2[N+](=O)[O-])n1Cc1ccccc1
> 100 µM: all assays above

COc1cccc(N(CN2CC=CC2=O)C(C)=O)c1
> 100 µM: all assays above

CN(C)Cc1cc(O)c(O)c(CN(C)C)c1
52.5 µM: NCI-H460 lung
59.3 µM: M14 melanoma
> 100 µM: all other assays above
